pIC50: −log10 of the molar value. Each block holds one compound with its values, some of them ahead of it. Active and inactive are the calls of the source. No cut-off for these calls is given here.
What was measured:
[1] = target: NACHT, LRR and PYD domains-containing protein 3 (Mus musculus, UniProt Q8R4B8); assay: Inhibition of NLRP3 in mouse J774A.1 cells infected with FLA-ST assessed as inhibition of LPS- induced IL-1beta production by ELISA; format: cell-based, J774.A1
J774.A1 [2] = assay: Inhibition of IL-1 beta release in LPS/nigericin-induced mouse J774.A1 cells pre-treated for 1 hr at 1 to 5 uM measured after 1 hr of stimulation by Western blot analysis; format: functional; details: dose 1-5 µM, time 2.0 hrs
Mus musculus [3] = assay: Anti-colitis activity against DSS-induced colitis C57BL/6 mouse model assessed as reduction in fecal occult blood treated orally once daily for 14 days started from day 3 post DSS-challenge; format: functional, organism-based; details: dose 25-50 mg/kg, time 14.0 day
[4] = Stability assessed as glutathione reactivity of compound incubated for 24 hrs; format: physicochemical
J774.A1 [5] = assay: Inhibition of reactive oxygen species generation in LPS/nigericin-induced mouse J774.A1 cells pre-treated for 1 hr at 1 to 5 uM measured after 1 hr of stimulation by fluorescence microplate-reader relative to control; format: functional, cell-based; details: dose 1-5 µM, time 2.0 hrs
Mus musculus [6] = assay: Antiinflammatory activity in po dosed LPS-induced sepsis C57BL/6 mouse model assessed as reduction in IL-1beta secretion in serum measured after 6 hrs by ELISA; format: functional, organism-based; details: dose 25-50 mg/kg
J774.A1 [7] = assay: Anti-pyroptosis activity against LPS/nigericin-induced mouse […] cells pre-treated for 1 hr at 1 to 5 uM measured after 1 hr of stimulation; format: functional, cell-based; details: dose 1-5 µM
[8] = target: NACHT, LRR and PYD domains-containing protein 3 (Mus musculus) (UniProt Q8R4B8); assay: Inhibition of NLRP3 inflammasome activation in LPS/nigericin-treated mouse J774A.1 cells assessed as blockade of caspase 1 p20 maturation pre-treated for 1 hr measured after 1 hr of stimulation by Western blot analysis; details: J774.A1, dose 1-5 µM, time 2.0 hrs
[9] = target: NACHT, LRR and PYD domains-containing protein 3 (Mus musculus) (UniProt Q8R4B8); assay: Inhibition of NLRP3 inflammasome activation in LPS/nigericin-treated mouse J774A.1 cells assessed as blockade of IL-1beta secretion pre-treated for 1 hr measured after 1 hr of stimulation by Western blot analysis; details: J774.A1, dose 1-5 µM, time 2.0 hrs
J774.A1 [10] = assay: Inhibition of reactive oxygen species generation in LPS/nigericin-induced mouse J774.A1 cells pre-treated for 1 hr at 1 to 5 uM measured after 1 hr of stimulation by DCFH-DA staining-based method relative to control; format: functional, cell-based; details: dose 1-5 µM, time 2.0 hrs
Mus musculus [11] = assay: Anti-colitis activity against DSS-induced colitis C57BL/6 mouse model assessed as reduction in colon length treated orally once daily for 14 days started from day 3 post DSS-challenge; format: functional, organism-based; details: dose 25-50 mg/kg, time 14.0 day
[12] = target: T1, Interferon-inducible protein AIM2 (Mus musculus) (UniProt Q91VJ1); assay: Inhibition of AIM2 inflammasome activation in LPS-induced mouse […] cells infected with […] pre-treated for 1 hr at 1 to 5 uM measured after 1 hr of stimulation; details: J774.A1, dose 1-5 µM, time 2.0 hrs
T1 sequence (whole entry): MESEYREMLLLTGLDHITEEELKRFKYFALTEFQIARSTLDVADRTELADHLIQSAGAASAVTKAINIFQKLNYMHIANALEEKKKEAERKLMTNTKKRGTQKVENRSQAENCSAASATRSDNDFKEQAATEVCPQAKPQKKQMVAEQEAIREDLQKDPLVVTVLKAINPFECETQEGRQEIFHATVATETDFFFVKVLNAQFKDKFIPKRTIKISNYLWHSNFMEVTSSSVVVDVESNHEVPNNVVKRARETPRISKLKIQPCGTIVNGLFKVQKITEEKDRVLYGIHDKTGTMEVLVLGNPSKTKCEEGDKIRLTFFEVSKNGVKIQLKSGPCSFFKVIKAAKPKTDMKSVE

J774.A1 [13] = assay: Cytotoxicity against mouse J774A.1 cells assessed as reduction in cell viability at 24 hrs by CCK8 assay; format: cell-based; details: j774.a1, 24 h
[14] = target: NACHT, LRR and PYD domains-containing protein 3 (Mus musculus) (UniProt Q8R4B8); assay: Inhibition of NLRP3 inflammasome activation in LPS/nigericin-treated mouse J774A.1 cells assessed as effect on […] in cell lysate pre-treated for 1 hr at 1 to 5 uM measured after 1 hr of stimulation by Western blot analysis; format: subcellular; details: J774.A1, dose 1-5 µM, time 2.0 hrs
[15] = target: NACHT, LRR and PYD domains-containing protein 3 (Mus musculus) (UniProt Q8R4B8); assay: Inhibition of NLRP3 inflammasome activation in LPS/nigericin-treated mouse BMDM cells assessed as inhibition of LPS and nigericin-induced IL-1beta production pre-treated for 1 hr measured after 1 hr of stimulation by ELISA; format: cell-based; details: dose 1-5 µM, time 2.0 hrs
[16] = target: NACHT, LRR and PYD domains-containing protein 3 (Mus musculus) (UniProt Q8R4B8); assay: Inhibition of NLRP3 inflammasome activation in LPS/nigericin-treated mouse J774A.1 cells assessed as effect on pro-caspase-1 pre-treated for 1 hr at 1 to 5 uM measured after 1 hr of stimulation by Western blot analysis; details: J774.A1, dose 1-5 µM
J774.A1 [17] = assay: Inhibition of mitochondrial reactive oxygen species generation in LPS/nigericin-induced mouse J774.A1 cells pre-treated for 1 hr at 1 to 5 uM measured after 1 hr of stimulation by MitoSOX Red fluorescence microplate-reader relative to control; format: functional; details: dose 1-5 µM, time 2.0 hrs
[18] = target: NLR family CARD domain-containing protein 4 (Mus musculus) (UniProt Q3UP24); assay: Inhibition of NLRC4 inflammasome activation in LPS-induced mouse […] cells infected with […] pre-treated for 1 hr at 1 to 5 uM measured after 1 hr of stimulation; details: J774.A1, dose 1-5 µM, time 2.0 hrs
[19] = Selectivity index, ratio of TC50 for cytotoxicity against human HEK293T cells to IC50 for inhibition of NLRP3 in mouse J774A.1 cells
[20] = target: NACHT, LRR and PYD domains-containing protein 3 (Mus musculus) (UniProt Q8R4B8); assay: Inhibition of NLRP3 inflammasome activation in LPS/nigericin-treated mouse J774A.1 cells assessed as effect on pro-IL-1-beta pre-treated for 1 hr at 1 to 5 uM measured after 1 hr of stimulation by Western blot analysis; details: J774.A1, dose 1-5 µM, time 2.0 hrs
[21] = Cytotoxicity against human HEK293T cells assessed as reduction in cell viability at 24 hrs by CCK8 assay; format: cell-based, HEK-293T; details: read-out: TD50
Mus musculus [22] = assay: Antiinflammatory activity in po dosed LPS-induced sepsis C57BL/6 mouse model assessed as reduction in IL-1beta secretion in peritonial fluid measured after 6 hrs by ELISA; format: functional, organism-based; details: dose 25-50 mg/kg
[23] = target: NACHT, LRR and PYD domains-containing protein 3 (Mus musculus) (UniProt Q8R4B8); assay: Inhibition of NLRP3 inflammasome activation in LPS/nigericin-treated mouse J774A.1 cells assessed as inhibition of LPS and nigericin-induced IL-1beta production pre-treated for 1 hr measured after 1 hr of stimulation by ELISA; details: J774.A1, dose 1-5 µM, time 2.0 hrs
Mus musculus [24] = assay: Anti-colitis activity against DSS-induced colitis C57BL/6 mouse model assessed as reduction in IL-1 beta in colonic tissue treated orally once daily for 14 days started from day 3 post DSS-challenge by ELISA relative to control; format: functional, organism-based; details: dose 25-50 mg/kg, time 14.0 day
J774.A1 [25] = assay: Cytotoxicity against mouse J774A.1 cells assessed as reduction in cell viability at 2 hrs by CellTiter 96 AQueous One solution cell proliferation assay; format: cell-based; details: j774.a1, 2 h

Sequence of NACHT, LRR and PYD domains-containing protein 3 (Q8R4B8 whole entry, the tested form may be a part): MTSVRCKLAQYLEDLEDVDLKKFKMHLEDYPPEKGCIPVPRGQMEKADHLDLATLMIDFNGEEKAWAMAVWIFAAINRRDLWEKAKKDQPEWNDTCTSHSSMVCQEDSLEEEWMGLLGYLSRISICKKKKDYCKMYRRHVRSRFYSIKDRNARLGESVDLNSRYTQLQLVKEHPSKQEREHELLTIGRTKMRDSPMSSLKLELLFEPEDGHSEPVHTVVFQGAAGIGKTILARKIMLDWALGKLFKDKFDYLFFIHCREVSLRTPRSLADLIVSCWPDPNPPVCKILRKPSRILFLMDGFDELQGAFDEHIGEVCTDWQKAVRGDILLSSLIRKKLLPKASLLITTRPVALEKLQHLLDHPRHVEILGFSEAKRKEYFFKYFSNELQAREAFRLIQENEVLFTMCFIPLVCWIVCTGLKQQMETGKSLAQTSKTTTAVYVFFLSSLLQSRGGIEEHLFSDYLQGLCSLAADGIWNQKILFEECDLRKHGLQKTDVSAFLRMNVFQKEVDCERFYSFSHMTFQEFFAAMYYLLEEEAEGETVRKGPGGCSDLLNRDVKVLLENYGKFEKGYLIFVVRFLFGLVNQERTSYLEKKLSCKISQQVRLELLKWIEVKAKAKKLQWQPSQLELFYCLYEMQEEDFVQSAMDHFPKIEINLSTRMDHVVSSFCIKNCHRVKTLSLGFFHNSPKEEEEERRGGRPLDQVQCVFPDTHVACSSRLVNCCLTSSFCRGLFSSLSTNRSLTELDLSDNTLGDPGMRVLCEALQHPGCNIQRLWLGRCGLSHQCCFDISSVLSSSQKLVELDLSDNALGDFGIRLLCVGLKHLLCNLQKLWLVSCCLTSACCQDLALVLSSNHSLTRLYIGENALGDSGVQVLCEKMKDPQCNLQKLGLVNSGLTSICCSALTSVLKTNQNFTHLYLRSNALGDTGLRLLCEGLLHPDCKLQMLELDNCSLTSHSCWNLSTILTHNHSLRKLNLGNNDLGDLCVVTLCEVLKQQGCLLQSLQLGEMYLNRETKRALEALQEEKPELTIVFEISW
Sequence of NACHT, LRR and PYD domains-containing protein 3 (Mus musculus) (Q8R4B8 whole entry, the tested form may be a part): as above
Sequence of NLR family CARD domain-containing protein 4 (Mus musculus) (Q3UP24 whole entry, the tested form may be a part): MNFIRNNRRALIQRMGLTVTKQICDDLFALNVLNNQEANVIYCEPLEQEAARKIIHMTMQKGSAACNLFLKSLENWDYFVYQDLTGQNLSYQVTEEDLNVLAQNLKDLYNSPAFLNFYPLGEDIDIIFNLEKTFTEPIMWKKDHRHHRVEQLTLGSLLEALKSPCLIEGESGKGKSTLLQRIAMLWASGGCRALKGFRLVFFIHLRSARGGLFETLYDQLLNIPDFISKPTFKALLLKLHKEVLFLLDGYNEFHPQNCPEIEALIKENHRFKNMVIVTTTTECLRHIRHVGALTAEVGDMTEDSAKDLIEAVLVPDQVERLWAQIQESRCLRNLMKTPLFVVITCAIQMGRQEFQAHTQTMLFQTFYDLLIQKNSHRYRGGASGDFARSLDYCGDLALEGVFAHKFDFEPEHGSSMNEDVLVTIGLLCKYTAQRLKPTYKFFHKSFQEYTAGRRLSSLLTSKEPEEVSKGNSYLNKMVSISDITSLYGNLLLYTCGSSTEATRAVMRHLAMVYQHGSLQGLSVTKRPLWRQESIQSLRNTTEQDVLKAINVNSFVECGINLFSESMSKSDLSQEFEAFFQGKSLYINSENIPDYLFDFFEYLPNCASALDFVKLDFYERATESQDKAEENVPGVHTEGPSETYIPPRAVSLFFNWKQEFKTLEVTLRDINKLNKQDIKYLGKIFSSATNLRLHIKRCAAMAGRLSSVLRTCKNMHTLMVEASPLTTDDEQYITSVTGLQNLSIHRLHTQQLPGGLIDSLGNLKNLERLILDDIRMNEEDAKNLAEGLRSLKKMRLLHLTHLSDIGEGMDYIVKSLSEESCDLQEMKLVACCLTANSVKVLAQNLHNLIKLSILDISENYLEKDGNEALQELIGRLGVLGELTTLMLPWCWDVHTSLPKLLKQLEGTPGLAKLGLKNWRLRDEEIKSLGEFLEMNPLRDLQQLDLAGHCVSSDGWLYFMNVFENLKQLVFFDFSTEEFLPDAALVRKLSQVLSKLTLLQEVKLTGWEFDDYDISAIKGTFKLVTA

SMILES: CCCNC(=O)Oc1c(C)cc(/C=C/C(=O)c2ccc(SC)cc2)cc1C
pIC50 [1]: 4.65

SMILES: COc1c(C)cc(/C=C/C(=O)c2ccc(NC(=O)Nc3ccc(C)cc3)cc2)cc1C
pIC50 [1]: 4.41

SMILES: COc1c(C)cc(/C=C/C(=O)c2ccc(NC(=O)Nc3ccc(F)cc3)cc2)cc1C
pIC50 [1]: 4.63

SMILES: CSc1ccc(C(=O)/C=C/c2cc(C)c(OCC(=O)O)c(C)c2)cc1
pIC50 [1]: < 4.40

SMILES: CSc1ccc(C(=O)/C=C/c2ccc3c(c2)CCO3)cc1
pIC50 [1]: 4.62

SMILES: CCCNC(=O)Nc1ccc(C(=O)/C=C/c2cc(C)c(OC)c(C)c2)cc1
pIC50 [1]: 5.02

SMILES: COc1c(C)cc(/C=C/C(=O)c2ccc(N)cc2)cc1C
pIC50 [1]: 5.24

SMILES: COc1c(C)cc(/C=C/C(=O)c2ccc(SC)cc2)cc1C
pIC50 [1]: 4.31

SMILES: C=C(COc1c(C)cc(/C=C/C(=O)c2ccc(SC)cc2)cc1C)C(=O)O
pIC50 [1]: < 4.40

SMILES: Cc1cc(/C=C/C(=O)c2ccc(S(C)(=O)=O)cc2)cc(C)c1O
pIC50 [1]: 4.89

SMILES: Cc1cc(/C=C/C(=O)c2ccc(-c3ccccc3)cc2)cc(C)c1O
pIC50 [1]: 4.53

SMILES: CSc1ccc(C(=O)/C=C/c2cc(C)c(OC(C)(C)C(=O)O)c(C)c2)cc1 [ELAFIBRANOR]
pIC50 [1]: 4.40
Selectivity Index [19]: 3.6
CC50 at 24 h [21]: 142 µM

SMILES: Cc1cc(/C=C/C(=O)c2ccc(-c3cccs3)cc2)cc(C)c1O
pIC50 [1]: < 4.40

SMILES: CSc1ccc(C(=O)/C=C/c2ccc(O)c(Cl)c2)cc1
pIC50 [1]: 5.01

SMILES: CSc1ccc(C(=O)/C=C/c2cc(C)c(OCCO)c(C)c2)cc1
pIC50 [1]: 4.90

Stronger by pIC50 [1], values ahead:

pIC50 [1]: 5.28
SMILES: CSc1ccc(C(=O)/C=C/c2cc(C)c(O)cc2C)cc1

pIC50 [1]: 5.30
SMILES: Cc1cc(/C=C/C(=O)c2ccc(NS(=O)(=O)c3ccc(F)cc3)cc2)cc(C)c1O

pIC50 [1]: 5.46
SMILES: CSc1ccc(C(=O)/C=C/c2ccc(C(=O)O)cc2)cc1

pIC50 [1]: 5.47
SMILES: Cc1cc(/C=C/C(=O)c2ccc(NS(=O)(=O)NC(C)C)cc2)cc(C)c1O

pIC50 [1]: 5.52
SMILES: CCN(CC)C(=S)SSC(=S)N(CC)CC [DISULFIRAM]

Stabilty [4]: Stable
inhibition [8]: Dose-Dependent Effect
inhibition [9]: inactive
inhibition [12]: inactive
inhibition [14]: inactive
inhibition [15]: Dose-Dependent Effect
pIC50 [1]: 5.89
Activity [16]: inactive
inhibition [18]: inactive
inhibition [20]: inactive
inhibition [23]: Dose-Dependent Effect
SMILES: C=CC(=O)Nc1ccc(C(=O)/C=C/c2cc(C)c(O)c(C)c2)cc1
inhibition (J774.A1 [2]): Active
Activity (Mus musculus [3]): Active
inhibition (J774.A1 [5]): Active
Activity (Mus musculus [6]): Dose-Dependent Effect
Activity (J774.A1 [7]): Active
inhibition (J774.A1 [10]): Active
Activity (Mus musculus [11]): Active
Activity (J774.A1 [13]): Toxic
inhibition (J774.A1 [17]): Active
Selectivity Index [19]: 119.7
CC50 at 24 h [21]: 156 µM
Activity (Mus musculus [22]): Dose-Dependent Effect
Activity (Mus musculus [24]): Active
Activity (J774.A1 [25]): Non-Toxic

pIC50 [1]: 7.00
SMILES: CS(=O)(=O)CCC#N [DAPANSUTRILE]

Source: ChEMBL document CHEMBL4814056, “Discovery of chalcone analogues as novel NLRP3 inflammasome inhibitors with potent anti-inflammation activities” (Eur J Med Chem, 2021)
